# Reference: patent publication US7875599B2, “C-17-heteroaryl steroidal CYP17 inhibitors/antiandrogens, in vitro biological activities, pharmacokinetics and antitumor activity” (University of Maryland, priority 2005, dated 2011)
# What was measured:
# CYP17 = molecular target: T1, CYP17 (Homo sapiens, UniProt P05093); test: UV-vis difference spectroscopy, binding to heme iron of CYP17
# T1 sequence (P05093 1-508): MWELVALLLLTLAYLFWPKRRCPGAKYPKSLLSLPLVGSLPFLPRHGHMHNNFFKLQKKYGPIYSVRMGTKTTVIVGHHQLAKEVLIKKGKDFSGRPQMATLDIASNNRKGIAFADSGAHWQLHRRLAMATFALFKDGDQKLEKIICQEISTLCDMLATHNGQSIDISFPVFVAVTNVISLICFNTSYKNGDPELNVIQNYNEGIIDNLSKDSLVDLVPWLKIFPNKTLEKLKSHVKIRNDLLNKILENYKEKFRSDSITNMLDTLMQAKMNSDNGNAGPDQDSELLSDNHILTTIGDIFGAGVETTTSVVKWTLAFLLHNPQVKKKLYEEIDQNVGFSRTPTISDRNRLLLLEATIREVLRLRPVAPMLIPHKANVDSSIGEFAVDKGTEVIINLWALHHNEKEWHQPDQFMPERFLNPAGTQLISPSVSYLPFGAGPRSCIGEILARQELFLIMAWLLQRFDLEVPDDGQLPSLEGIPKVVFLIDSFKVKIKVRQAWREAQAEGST
# [1] = tested on: LAPC4 human prostate tumor xenograft; test: LAPC4 xenograft, second experiment (treatment from day after inoculation); format: in vivo, mouse; details: 0.15 mmol/kg twice-daily s.c.
# Excerpt: The second in vivo experiment tests the ability of 5 to inhibit the growth of LAPC4 prostate cancer cells growing in SCID mice, and 16 (Chart 1), a previously identified potent CYP17 inhibitor/antiandrogen (Gregoriyev et al. and Njar et al., J. Med. Chem., 1998, 41, 902-912, above) and castration are used as reference treatments. In this experiment, treatment begins on the day that mice were inoculated subcutaneously with hormone-dependent LAPC4 cells and are castrated or injected sc twice daily with 5 or 16.
# In Vivo Antitumor Studies (LAPC-4 Prostate Cancer Xenografts): All animal studies are performed according to the guidelines and approval of the Animal Care Committee of the University of Maryland School of Medicine, Baltimore. Male severe combined immunodeficient (SCID) mice 4-6 weeks of age purchased from the National Cancer Institute-Frederick Cancer Research and Development Center (Fredrick, Md.) are housed in a pathogen-free environment under controlled conditions of light and humidity and allowed free access to food and water. Tumors are developed from LAPC4 cells inoculated subcutaneously (s.c.) in the mice essentially as previously described (21). LAPC4 cells are grown in IMEM with 15% FBS plus 1% PS and 10 nm DHT until 80% confluent. Cells are scraped into DPBS, collected by centrifugation, and resuspended in Matrigel (10 mg/ml) at 3×10^7 cells/ml. Mice are injected s.c. with 100 μl of the cell suspension at one site on each flank. Tumors are measured weekly with calipers, and tumor volumes are calculated by the formula: […]).
# In the second experiment, mice are inoculated with LAPC4 cells and are divided into four groups of 5 mice each. The control and castrated group receiv vehicle, while the other two groups receiv either VN/85-1 (0.15 mmol/kg twice-daily, 9 a.m. and 5 p.m.) or 5 (0.15 mmol/kg twice-daily, 9 a.m. and 5 p.m.). These treatments are initiated one day after LAPC4 cell inoculation; continued for 14 weeks for control group, 19 weeks (for VN/85-1 and castration groups) and for 21 weeks for 5 treated group and tumors are measured and processed as described above.
# FIG. 7: The effects of 5, 16, and orchidectomy on the formation and growth of LAPC4 prostate tumors in male SCID mice. 3×10^7 LAPC-4 cells were injected s.c. into the dorsal flank of SCID mice. One group of mice was castrated. The other groups of mice received either vehicle or 5 (0.15 mmol/kg twice-daily) or 16 (0.15 mmol/kg twice-daily). Daily treatment with 5 or 16 was initiated 1 day after cell inoculation. Tumors volumes were measured weekly, and the percentage of change in tumor volume was determined after 16 weeks of treatment * Indicates significant difference of 5 versus control, castration and 16 at week 14 (P 0.00065, 0.05 and 0.0097, respectively). ** Indicates significant difference of 5 versus castration and 16 at week 16 (P=0.047 and 0.0047, respectively). ↓-↓↓: Period of reduced administered dose of 5.
# LNCaP cells = test: LNCaP cell growth, WST-1 viability assay; details: Homo sapiens, LNCaP, 168 h, read-out: IC50, inhibition of DHT-induced LNCaP cell proliferation, 1 nM DHT, 7 days, WST-1
# Protocol: To determine the effect of novel compounds on cell proliferation, cells are transferred into steroid-free medium three days prior to the start of the experiments. Steroid-free medium consisted of phenol red free RPMI supplemented with 5% dextran-coated, charcoal treated serum, and 1% penicillin/streptomycin solution. Growth studies are then performed by plating cells (3×10^4) in 24-well multi-well dishes (Corning, Inc. Corning, N.Y.). After a 24 hours attachment period, the medium is aspirated and replaced with steroid-free medium containing vehicle or the indicated concentration of DHT (1 nM) and compounds (0.1 μM-10 μM). Control wells are treated with vehicle (ethanol). This medium is changed every three days and the number of viable cells is compared by WST-1 [4-[3-(4-iodophenyl)-2-(4-nitrophenyl)-2H-5-tetrazolio]-1,3-benzene disulfonate] assay on the seventh day. Following incubation of cells for the above-mentioned time, 10% WST-1 solution is added to each well and incubated at 37° C. for three hours. Following incubation, plates are slightly shaken and immediately read at 450 nm with a scanning multi-well spectrophotometer. All results represent the average of a minimum of three wells. Additional control consists of medium alone with no cells.
# Cells were grown in steroid-free medium before plating.
compound,measurement,setting,value
"C[C@]12CC[C@H](O)CC1=CC[C@@H]1[C@@H]2CC[C@]2(C)C(n3cnc4ccccc43)=CC[C@@H]12 [Compound 5, 3β-Hydroxy-17-(1H-benzimidazol-1-yl)androsta-5,16-diene]",type of difference spectrum induced,CYP17,type II difference spectrum
same,increase of tumor volume,[1]; week 14,0.5 fold
same,reduction of tumor volume versus control mice,[1]; week 14 (b4 prints 50 mg/kg/twice daily),93.8%
same,IC50,LNCaP cells,6 µM
